How the values were obtained:
osteoclasts = test: Resorption activity of osteoclasts on calcium phosphate-coated plates (resorption pit area); assay type: cell-based, mice; settings: for Resorption activity of osteoclasts, %: control = 100; for area of resorption pits compared to the control: text summary, concentration not stated
Method: First, bone marrow cells were isolated, as follow. After sacrificing 7-9 week female mice by cervical dislocation, femur and tibia were excised aseptically while removing attached soft tissues. After cutting both ends of long bones, 1 ml of an enzyme solution, containing 0.1% collagenase (Gibco), 0.05% trypsin and 0.5 mM EDTA (Gibco), was injected to the bone marrow cavity at one end using a syringe with a 26-guage needle, and bone marrow was then collected. After shaking the recovered bone marrow for 30 min, bone marrow cells were collected, and cultured in α-minimum essential medium (α-MEM) supplemented with 10% FBS for 24 hrs. Then, non-adherent cells were collected, which are osteoclast pregenitors, aliquotted onto culture plates at a density of 2×10^5 cells per well, and cultured for 8 days in α-MEM supplemented with 20 ng/ml of macrophage-colony stimulating factor (M-CSF, Peprotech, USA) and 30 ng/ml RANKL (Peprotech, USA). During the 8 days of culturing, the cells were treated with the Compound 1. Thereafter, osteoclast formation was investigated by fixing the cultured cells and then carrying out TRAP staining, as described in the following Experimental Example 2.2. In addition, resorption activity of osteoclasts was investigated by measuring the absorption area after removing osteoclasts in cultures in calcium phosphate-coated plates, as described in Experimental Example 2.3, below.
The differentiated osteoclasts were cultured on calcium phosphate-coated plates (OAASTM, OCT, Korea) in order to evaluate resorption activity of the cells. After removing culture medium, to remove the adherent cells, the plates were washed with distilled water three times, and incubated in 5% sodium hypochlorite for 5 min. After washing again with distilled water and drying the plates, the area of formed resorption pits was calculated by means of an Image Pro Plus software.

[1] = tested on: transcriptional factor Runx2; test: Runx2 expression, p6xOSE2-Luc luciferase assay in C2C12 cells; assay type: cell-based, mouse
Method: (§1) In the following tests, three kinds of cell lines were used. The human osteosarcoma cell lines, MG-63 (ATCC No. CRL-1427) and HOS (ATCC No. CRL-1543), and mouse muscle C2C12 muscle cells (ATCC No. CRL-1772) were purchased from ATCC (American Type Culture Collection, Rockville, USA), and cultured in Dulbecco's modified Eagle's medium (DMEM) supplemented with 10% fetal bovine serum (FBS).
Primarily, transient transfection was carried out using a p6xOSE2-Luc vector, which was prepared by inserting into a pGL3 promoter vector six tandem copies of the OSE2 motif, the binding site of the transcriptional factor Runx2 that is a critical regulator for osteoblast differentiation. Runx2 expression levels were determined by luciferase assay. The test procedure will be described in more detail, as follows.
C2C12 cells were plated onto 6-well plates at a density of 1(10^5 cells per well, and cultured for 24 hrs in a 5% CO2 incubator.
Then, the cells transiently transfected with the p6xOSE2-Luc vector using a transfection reagent, LipofectAmine, as follows. The plasmid DNA was reacted with the transfection reagent for 15 min to form p6xOSE2-Luc DNA:lipofectamine complexes. During this reaction, culture medium was removed from each well of the plates, the cells were washed with FBS-free DMEM, and 800 μl of FBS-free DMEM was added to each well. […]

[2] = tested on: ovariectomized female white mice with onset of osteoporosis; test: Therapeutic effect on osteoporosis, bone mineral densitometer; assay type: in vivo
Method: After ovariectomy, female white mice weighing about 250 g were bred for four weeks. After checking the onset of osteoporosis in the mice, each of the mice was orally administered with 220 μl of the Compound 1 dissolved in 30 ml water for four weeks.
BMD measurement was performed before ovariectomy and every week for eight weeks after ovariectomy, using a bone mineral densitometer, XCT 540 Research SA made in Germany.
After anesthetizing the mice being bred in cages by intraperitoneal injection of a mixture of Ketamine HCl (ketara 10 mg/kg) and 2% xylazine HCl (Roupun 0.15 ml/kg), BMD measurement was made at a voxel size of 0.1×0,1 mm^2 and threshold values of 280 mg/cm^2 for cancellous bone and 500 mg/cm^2 for compact bone. The analysis sites at the proximal tibias were determined by Scout scans (10 mm/sec), and BMD was measured at three slices at the determined sites by CT scans (7 mm/sec). BMD measurement was performed twice or more at the same site every week during eight weeks after ovariectomy.

MG-63 osteoblasts = test: Proliferation of MG-63 osteoblasts (3H-thymidine incorporation); assay type: cell-based, human; settings: for Proliferation rate of MG-63 cells, %: 1% FBS, untreated control = 100; for proliferation rate of osteoblasts compared to a control not treated: text summary, concentration not stated
From the text: as §1
In order to indirectly evaluate cytotoxicity of the Compound 1 and investigate effect of the Compound 1 naturally extracted on obsteoblast proliferation, proliferation of MG-63 osteoblasts was investigated by measuring the amount of ^3H-thymidine incorporated into cellular DNA upon DNA replication. The cells were aliquotted onto 24-well plates at a density of 2×10^4 cells per well. The next day, after exchanging culture medium to medium containing 1% FBS, the cells were treated with the compound 1 serially diluted at various concentrations and further cultured for 48 hrs. Four hours before finishing the culture of 48 hrs, ^3H-thymidine was added to the medium in an amount of 3 μCi per well. The cells were washed with phosphate buffer, and treated with 5% trichloroacetic acid (TCA) pre-cooled on ice. Each of the separated TCA-insoluble fractions was dissolved in 0.1 M NaOH. With a portion of each fraction, ^3H-thymidine uptake by the cells was measured using a liquid scintillation counter.

osteoprotegerin (OPG) = test: Osteoprotegerin (OPG) expression in MG63 cells, OPG ELISA; assay type: cell-based, human; settings: for OPG expression level in MG63 cells, %: control = 100
Method: as §1
When MG63 cells grew confluently on 96-well plates, […] of FBS-free DMEM containing various concentrations of the Compound 1 was added to each well. After incubation for 16 hrs, the culture supernatants were collected. The amount of OPG released into the medium was determined using an OPG ELISA kit.

Structure (SMILES): O=Cc1ccc(CO)o1 [Compound 1, 5-hydroxymethylfuran-2-carboxyaldehyde]
- Resorption activity of osteoclasts, % (osteoclasts; 10^−4 M Compound 1, area of resorption pits): 52.34 ± 8.28%
- Resorption activity of osteoclasts, % (osteoclasts; 10^−5 M Compound 1, area of resorption pits): 46.92 ± 3.60%
- Resorption activity of osteoclasts, % (osteoclasts; 10^−6 M Compound 1, area of resorption pits): 41.75 ± 14.07%
- Resorption activity of osteoclasts, % (osteoclasts; 10^−7 M Compound 1, area of resorption pits): 61.46 ± 10.35%
- Resorption activity of osteoclasts, % (osteoclasts; 10^−8 M Compound 1, area of resorption pits): 66.03 ± 7.49%
- area of resorption pits compared to the control (osteoclasts): about 50%
- area of resorption pits compared to the control (osteoclasts; listed as Example 1): inhibit bone resorption activity of osteoclasts
- effect on activity of Runx2 (in words) [1]: increase the activity of Runx2
- decrease of BMD compared to that before the ovariectomy ([2]; control about 22%): about 15%
- reduction of BMD compared to a control (in words) ([2]; oral 220 μl/day for four weeks after four weeks of osteoporosis development): very slight reduction of BMD
- Change in BMD, % ([2]; week 1 after ovariectomy (administration begins after week 4), control −3): −2.9%
- Change in BMD, % ([2]; week 2 after ovariectomy (administration begins after week 4), control −10): −10.5%
- Change in BMD, % ([2]; week 3 after ovariectomy (administration begins after week 4), control −15): −14%
- Change in BMD, % ([2]; week 4 after ovariectomy (administration begins after week 4), control −19): −17%
- Change in BMD, % ([2]; week 5 after ovariectomy, oral 220 μl in 30 ml water from week 4, control −21.8): −16.5%
- Change in BMD, % ([2]; week 7 after ovariectomy, oral 220 μl in 30 ml water from week 4, control −25.9): −19%
- Change in BMD, % ([2]; week 8 after ovariectomy, oral 220 μl in 30 ml water from week 4, control −32): −21.4%
- Proliferation rate of MG-63 cells, % (MG-63 osteoblasts; 10^−4 M Compound 1, 48 hrs): 105.50 ± 5.90%
- Proliferation rate of MG-63 cells, % (MG-63 osteoblasts; 10^−5 M Compound 1, 48 hrs): 102.63 ± 8.53%
- Proliferation rate of MG-63 cells, % (MG-63 osteoblasts; 10^−6 M Compound 1, 48 hrs): 105.56 ± 5.49%
- Proliferation rate of MG-63 cells, % (MG-63 osteoblasts; 10^−7 M Compound 1, 48 hrs): 103.91 ± 5.81%
- Proliferation rate of MG-63 cells, % (MG-63 osteoblasts; 10^−8 M Compound 1, 48 hrs): 101.38 ± 4.65%
- proliferation rate of osteoblasts compared to a control not treated (MG-63 osteoblasts): over 105%
- proliferation rate of osteoblasts compared to a control not treated (MG-63 osteoblasts; listed as Example 1): ≥ 105%
- effect on expression of osteoprotegerin (OPG) in osteoblasts (in words) (osteoprotegerin (OPG)): increases the expression of osteoprotegerin (OPG)
- OPG expression level in MG63 cells, % (osteoprotegerin (OPG); 10^−6 M Compound 1, 16 hrs): 866.90 ± 10.59%
- OPG expression level in MG63 cells, % (osteoprotegerin (OPG); 10^−8 M Compound 1, 16 hrs): 204.30 ± 14.96%

Reference: patent US20060004088A1, “Furan derivatives for preventing and curing osteoporosis and pharmaceutical compositions containing the same” (OCT INC., priority 2002, published 2006)
